Laboratory results from ChEMBL document CHEMBL1201862, “PubChem BioAssay data set” (2004).
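All cell lines were grown in 96-well plates and treated with compound for 48 hours. Here, GI50 denotes the concentration required for 50% inhibition of growth.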 The source made the active and inactive calls. No stated cut-off is given here; in the data, active = GI50 up to about 1.1 µM and inactive = higher.

Experiments:
Experiment in all cases: NCI tumour cell line growth inhibition, 48 h
[1] = test system: HOP-62
[2] = test system: COLO 205
[3] = test system: DMS-114
[4] = test system: SK-MEL-2
[5] = test system: DMS-273
[6] = test system: UACC-257
[7] = test system: OVCAR-3
[8] = test system: HCT-116
[9] = test system: EKVX
[10] = test system: LOX IMVI
[11] = test system: SK-MEL-28
[12] = test system: Malme-3M
[13] = test system: MOLT-4
[14] = test system: CAKI-1
[15] = test system: SF-539
[16] = test system: M19-MEL
[17] = test system: KM12
[18] = test system: OVCAR-8
[19] = test system: NCI-H226
[20] = test system: SK-OV-3
[21] = test system: HCT-15
[22] = test system: XF498
[23] = test system: U-251
[24] = test system: CCRF-CEM
[25] = test system: RXF 393
[26] = test system: OVCAR-4
[27] = test system: 786-0
[28] = test system: M14
[29] = test system: SR
[30] = test system: A549
[31] = test system: HT-29
[32] = test system: K562
[33] = test system: SNB-75
[34] = test system: SK-MEL-5
[35] = test system: KM-20L2
[36] = test system: UO-31
[37] = test system: ACHN
[38] = test system: SNB-19
[39] = test system: UACC-62
[40] = test system: A498
[41] = test system: SNB-78
[42] = test system: RPMI-8226
[43] = test system: NCI-H460
[44] = test system: NCI-H23
[45] = test system: NCI-H522
[46] = test system: OVCAR-5
[47] = test system: LXFL 529
[48] = test system: SW-620
[49] = test system: SF-295
[50] = test system: SN12C
[51] = test system: SF-268
[52] = test system: HL-60
[53] = test system: DLD-1
[54] = test system: HOP-18
[55] = test system: HCC 2998
[56] = test system: TK-10
[57] = test system: HOP-92

## O=[N+]([O-])c1ccc(-c2cnc3ccccn23)cc1
[1]
  GI50: > 100 µM (inactive)
[2]
  GI50: > 100 µM (inactive)
[3]
  GI50: 48.6 µM (inactive)
[4]
  GI50: > 100 µM (inactive)
[5]
  GI50: > 100 µM (inactive)
[6]
  GI50: > 100 µM (inactive)
[7]
  GI50: > 100 µM (inactive)
[8]
  GI50: > 100 µM (inactive)
[9]
  GI50: > 100 µM (inactive)
[10]
  GI50: > 100 µM (inactive)
[11]
  GI50: > 100 µM (inactive)
[12]
  GI50: > 100 µM (inactive)
[13]
  GI50: > 100 µM (inactive)
[14]
  GI50: 62.4 µM (inactive)
[15]
  GI50: > 100 µM (inactive)
[16]
  GI50: > 100 µM (inactive)
[17]
  GI50: > 100 µM (inactive)
[18]
  GI50: > 100 µM (inactive)
[19]
  GI50: > 100 µM (inactive)
[20]
  GI50: 62.5 µM (inactive)
[21]
  GI50: > 100 µM
[22]
  GI50: > 100 µM (inactive)
[23]
  GI50: > 100 µM (inactive)
[24]
  GI50: > 100 µM (inactive)
[25]
  GI50: 24.2 µM (inactive)
[26]
  GI50: > 100 µM (inactive)
[27]
  GI50: > 100 µM (inactive)
[28]
  GI50: > 100 µM (inactive)
[29]
  GI50: 84.7 µM (inactive)
[30]
  GI50: > 100 µM (inactive)
[31]
  GI50: > 100 µM (inactive)
[32]
  GI50: > 100 µM (inactive)
[33]
  GI50: 30.6 µM (inactive)
[34]
  GI50: > 100 µM (inactive)
[35]
  GI50: > 100 µM (inactive)
[36]
  GI50: > 100 µM (inactive)
[37]
  GI50: > 100 µM (inactive)
[38]
  GI50: > 100 µM (inactive)
[39]
  GI50: > 100 µM (inactive)
[40]
  GI50: > 100 µM (inactive)
[41]
  GI50: > 100 µM (inactive)
[42]
  GI50: 52.6 µM (inactive)
[43]
  GI50: > 100 µM (inactive)
[44]
  GI50: > 100 µM (inactive)
[45]
  GI50: > 100 µM (inactive)
[46]
  GI50: > 100 µM (inactive)
[47]
  GI50: > 100 µM (inactive)
[48]
  GI50: > 100 µM (inactive)
[49]
  GI50: > 100 µM (inactive)
[50]
  GI50: 61.2 µM (inactive)
[51]
  GI50: > 100 µM (inactive)
[52]
  GI50: 44.2 µM (inactive)

## CC1=NN(C(=O)Cc2ccccc2)C(=O)/C1=C\c1cccc(O)c1
[1]
  GI50: > 100 µM (inactive)
[2]
  GI50: > 100 µM (inactive)
[53]
  GI50: > 100 µM (inactive)
[3]
  GI50: > 100 µM (inactive)
[4]
  GI50: > 100 µM (inactive)
[5]
  GI50: > 100 µM (inactive)
[6]
  GI50: > 100 µM (inactive)
[7]
  GI50: > 100 µM (inactive)
[8]
  GI50: > 100 µM (inactive)
[9]
  GI50: > 100 µM (inactive)
[10]
  GI50: > 100 µM (inactive)
[11]
  GI50: > 100 µM (inactive)
[12]
  GI50: > 100 µM (inactive)
[13]
  GI50: > 100 µM (inactive)
[14]
  GI50: > 100 µM (inactive)
[15]
  GI50: > 100 µM (inactive)
[16]
  GI50: > 100 µM (inactive)
[54]
  GI50: > 100 µM (inactive)
[17]
  GI50: > 100 µM (inactive)
[18]
  GI50: > 100 µM (inactive)
[19]
  GI50: > 100 µM (inactive)
[55]
  GI50: > 100 µM (inactive)
[21]
  GI50: > 100 µM
[22]
  GI50: > 100 µM (inactive)
[23]
  GI50: > 100 µM (inactive)
[24]
  GI50: > 100 µM (inactive)
[26]
  GI50: > 100 µM (inactive)
[27]
  GI50: > 100 µM (inactive)
[28]
  GI50: > 100 µM (inactive)
[29]
  GI50: > 100 µM (inactive)
[30]
  GI50: > 100 µM (inactive)
[31]
  GI50: > 100 µM (inactive)
[32]
  GI50: > 100 µM (inactive)
[33]
  GI50: > 100 µM (inactive)
[34]
  GI50: > 100 µM (inactive)
[36]
  GI50: > 100 µM (inactive)
[37]
  GI50: > 100 µM (inactive)
[38]
  GI50: > 100 µM (inactive)
[56]
  GI50: > 100 µM (inactive)
[41]
  GI50: > 100 µM (inactive)
[42]
  GI50: > 100 µM (inactive)
[43]
  GI50: > 100 µM (inactive)
[44]
  GI50: > 100 µM (inactive)
[45]
  GI50: > 100 µM (inactive)
[46]
  GI50: > 100 µM (inactive)
[48]
  GI50: > 100 µM (inactive)
[49]
  GI50: > 100 µM (inactive)
[50]
  GI50: > 100 µM (inactive)
[51]
  GI50: > 100 µM (inactive)
[52]
  GI50: > 100 µM (inactive)

## O=C1c2ccccc2C(=O)N1CCN(CCN1C(=O)c2ccccc2C1=O)Cc1ccccc1
[1]
  GI50: > 100 µM (inactive)
[2]
  GI50: > 100 µM (inactive)
[53]
  GI50: > 100 µM (inactive)
[3]
  GI50: > 100 µM (inactive)
[4]
  GI50: > 100 µM (inactive)
[57]
  GI50: 68.2 µM (inactive)
[5]
  GI50: > 100 µM (inactive)
[6]
  GI50: > 100 µM (inactive)
[7]
  GI50: > 100 µM (inactive)
[8]
  GI50: > 100 µM (inactive)
[9]
  GI50: > 100 µM (inactive)
[10]
  GI50: > 100 µM (inactive)
[11]
  GI50: > 100 µM (inactive)
[13]
  GI50: > 100 µM (inactive)
[14]
  GI50: > 100 µM (inactive)
[16]
  GI50: > 100 µM (inactive)
[17]
  GI50: > 100 µM (inactive)
[18]
  GI50: > 100 µM (inactive)
[20]
  GI50: > 100 µM (inactive)
[21]
  GI50: > 100 µM
[22]
  GI50: > 100 µM (inactive)
[23]
  GI50: > 100 µM (inactive)
[24]
  GI50: > 100 µM (inactive)
[25]
  GI50: > 100 µM (inactive)
[26]
  GI50: > 100 µM (inactive)
[27]
  GI50: > 100 µM (inactive)
[28]
  GI50: > 100 µM (inactive)
[29]
  GI50: > 100 µM (inactive)
[30]
  GI50: > 100 µM (inactive)
[32]
  GI50: > 100 µM (inactive)
[33]
  GI50: > 10 µM (inactive)
[34]
  GI50: > 100 µM (inactive)
[35]
  GI50: > 100 µM (inactive)
[36]
  GI50: > 100 µM (inactive)
[37]
  GI50: > 100 µM (inactive)
[38]
  GI50: > 100 µM (inactive)
[39]
  GI50: 36.7 µM (inactive)
[56]
  GI50: > 100 µM (inactive)
[40]
  GI50: > 100 µM (inactive)
[41]
  GI50: > 100 µM (inactive)
[42]
  GI50: > 100 µM (inactive)
[43]
  GI50: > 100 µM (inactive)
[44]
  GI50: > 100 µM (inactive)
[45]
  GI50: > 100 µM (inactive)
[47]
  GI50: > 100 µM (inactive)
[48]
  GI50: > 100 µM (inactive)
[49]
  GI50: > 100 µM (inactive)
[50]
  GI50: > 100 µM (inactive)
[51]
  GI50: > 100 µM (inactive)
[52]
  GI50: > 100 µM (inactive)
